According to ChEMBL document CHEMBL3885881, “DrugMatrix”:

Species on record: Rattus norvegicus
Test: DrugMatrix - Regimen: Daily Repeat
Format: toxicity, organism-based, Sprague-Dawley
Parameters: regimen Daily Repeat, gender Male, age 6-8 weeks
Conditions: in vivo, po, route oral GAVAGE, vehicle .5 % CMC; for BASOPHIL / EOSINOPHIL / ERYTHROCYTE COUNT / HEMATOCRIT / HEMOGLOBIN / LEUKOCYTE COUNT / LYMPHOCYTE / MEAN CORPUSCULAR HEMOGLOBIN / MEAN CORPUSCULAR HEMOGLOBIN CONCENTRATION / MEAN CORPUSCULAR VOLUME / MONOCYTE / NEUTROPHIL / PLATELET COUNT: tissue Blood; for ALANINE AMINOTRANSFERASE / ALKALINE PHOSPHATASE / ASPARTATE AMINOTRANSFERASE / BLOOD UREA NITROGEN / CHLORIDE / CHOLESTEROL / CREATINE PHOSPHOKINASE / CREATININE / GLUCOSE / PHOSPHORUS / POTASSIUM / SODIUM / TOTAL PROTEIN: tissue Plasma
[1] = 0 mg/kg, 72 h, dose level Control, time 3 day
[2] = 0 mg/kg, 120 h, dose level Control, time 5 day
[3] = 30 mg/kg, 72 h, dose level Low, time 3 day
[4] = 30 mg/kg, 120 h, dose level Low, time 5 day

## CCN(CC)CCNC(=O)c1cc(Cl)c(N)cc1OC [METOCLOPRAMIDE]
[1]
  BASOPHIL: 0%
  EOSINOPHIL: 0.4%
  ERYTHROCYTE COUNT: 6.43 x10E6/uL
  HEMATOCRIT: 37.36%
  HEMOGLOBIN: 13.98 G/DL
  LEUKOCYTE COUNT: 13 x10E3/uL
  LYMPHOCYTE: 81.4%
  MEAN CORPUSCULAR HEMOGLOBIN: 21.9 pg
  MEAN CORPUSCULAR HEMOGLOBIN CONCENTRATION: 37.4 G/DL
  MEAN CORPUSCULAR VOLUME: 58.52 fL
  MONOCYTE: 0.4%
  NEUTROPHIL: 18%
  PLATELET COUNT: 1386 x10E3/uL
  ALANINE AMINOTRANSFERASE: 39.33 u/L
  ALKALINE PHOSPHATASE: 283.83 u/L
  ASPARTATE AMINOTRANSFERASE: 69.5 u/L
  BLOOD UREA NITROGEN: 14.83 mg/dL
  CHLORIDE: 107.33 MEQ/L
  CHOLESTEROL: 75.17 mg/dL
  CREATINE PHOSPHOKINASE: 107.67 u/L
  CREATININE: 0.48 mg/dL
  GLUCOSE: 172.5 mg/dL
  PHOSPHORUS: 10.48 mg/dL
  POTASSIUM: 6.9 MEQ/L
  SODIUM: 152.33 MEQ/L
  TOTAL PROTEIN: 5.9 G/DL
[2]
  BASOPHIL: 0%
  EOSINOPHIL: 0.4%
  ERYTHROCYTE COUNT: 6.96 x10E6/uL
  HEMATOCRIT: 41.12%
  HEMOGLOBIN: 15.24 G/DL
  LEUKOCYTE COUNT: 11.06 x10E3/uL
  LYMPHOCYTE: 88.6%
  MEAN CORPUSCULAR HEMOGLOBIN: 21.96 pg
  MEAN CORPUSCULAR HEMOGLOBIN CONCENTRATION: 37.1 G/DL
  MEAN CORPUSCULAR VOLUME: 59.12 fL
  MONOCYTE: 0.2%
  NEUTROPHIL: 10.8%
  PLATELET COUNT: 1155.8 x10E3/uL
  ALANINE AMINOTRANSFERASE: 36.33 u/L
  ALKALINE PHOSPHATASE: 340.33 u/L
  ASPARTATE AMINOTRANSFERASE: 68.33 u/L
  BLOOD UREA NITROGEN: 15 mg/dL
  CHLORIDE: 108.17 MEQ/L
  CHOLESTEROL: 74.67 mg/dL
  CREATINE PHOSPHOKINASE: 110.67 u/L
  CREATININE: 0.47 mg/dL
  GLUCOSE: 171.33 mg/dL
  PHOSPHORUS: 10.05 mg/dL
  POTASSIUM: 6.7 MEQ/L
  SODIUM: 155.5 MEQ/L
  TOTAL PROTEIN: 6.33 G/DL
[3]
  BASOPHIL: 0%
  EOSINOPHIL: 0%
  ERYTHROCYTE COUNT: 6.75 x10E6/uL
  HEMATOCRIT: 41.55%
  HEMOGLOBIN: 15.45 G/DL
  LEUKOCYTE COUNT: 12.45 x10E3/uL
  LYMPHOCYTE: 81%
  MEAN CORPUSCULAR HEMOGLOBIN: 22.95 pg
  MEAN CORPUSCULAR VOLUME: 61.7 fL
  MONOCYTE: 0%
  NEUTROPHIL: 19%
  PLATELET COUNT: 1187 x10E3/uL
  ALANINE AMINOTRANSFERASE: 40.67 u/L
  ALKALINE PHOSPHATASE: 299.33 u/L
  ASPARTATE AMINOTRANSFERASE: 95.67 u/L
  BLOOD UREA NITROGEN: 12.33 mg/dL
  CHLORIDE: 107.33 MEQ/L
  CHOLESTEROL: 78.67 mg/dL
  CREATINE PHOSPHOKINASE: 421.67 u/L
  CREATININE: 0.77 mg/dL
  GLUCOSE: 175.67 mg/dL
  PHOSPHORUS: 11.53 mg/dL
  POTASSIUM: 7.6 MEQ/L
  SODIUM: 150.67 MEQ/L
  TOTAL PROTEIN: 6.13 G/DL
[4]
  BASOPHIL: 0%
  EOSINOPHIL: 0%
  ERYTHROCYTE COUNT: 7 x10E6/uL
  HEMATOCRIT: 41.57%
  HEMOGLOBIN: 15.33 G/DL
  LEUKOCYTE COUNT: 13.57 x10E3/uL
  LYMPHOCYTE: 91%
  MEAN CORPUSCULAR HEMOGLOBIN: 21.93 pg
  MEAN CORPUSCULAR HEMOGLOBIN CONCENTRATION: 36.87 G/DL
  MEAN CORPUSCULAR VOLUME: 59.4 fL
  MONOCYTE: 0.33%
  NEUTROPHIL: 8.67%
  PLATELET COUNT: 1231.67 x10E3/uL
  ALANINE AMINOTRANSFERASE: 41 u/L
  ALKALINE PHOSPHATASE: 236.67 u/L
  ASPARTATE AMINOTRANSFERASE: 70.33 u/L
  BLOOD UREA NITROGEN: 14.67 mg/dL
  CHLORIDE: 104.33 MEQ/L
  CHOLESTEROL: 63.33 mg/dL
  CREATINE PHOSPHOKINASE: 157 u/L
  CREATININE: 0.5 mg/dL
  GLUCOSE: 156.33 mg/dL
  PHOSPHORUS: 9.97 mg/dL
  POTASSIUM: 6.37 MEQ/L
  SODIUM: 151.67 MEQ/L
  TOTAL PROTEIN: 6.23 G/DL
